# From patent US20260007599A1, “TICAGRELOR IV FORMULATIONS FOR USE IN THE TREATMENT OF GRAM-POSITIVE BACTEREMIA” (Hyloris Developments SA, priority 2023, published 2026)
# Tests used:
# [1] = Flocculation test (20 μl sample material in 1 ml diluent); type: physicochemical
# [2] = Storage stability of ticagrelor 6 mg/ml in HPβCD 40% w/w at pH 4.5, 5.5, 6.5, 40° C./75% RH, related substances by HPLC; type: physicochemical; conditions: for Acetal impurity, average content / Amine impurity, average content / Impurity at relative retention time 1.52, average content / Oxidative impurity 1, average content / Oxidative impurity 2, average content / Regiomer impurity, average content / Sum impurities >0.05 / Total impurities / Triol Impurity, average content: 40° C./75% RH
# Protocol: HPBCD was dissolved in a buffer solution of pH 4.5, 5.5 or 6.5 prepared separately in water. […] The ticagrelor in buffer solution was filtered through a 0.22 micron filtered and filled in USP Type I glass vials. The vials were stoppered and stored. All precautions were taken during manufacturing, such as N2 purging and avoiding direct exposure to light. The vials were stored at 40° C. and 75% Relative Humidity (RH). To determine the stability of the formulations, batches were evaluated using a related substance method on HPLC. A Gradient HPLC method was used to analyze impurities in formulations using a YMC-Pack Pro C18 column (100×4.6 mm, S-3 μm 12 nm). Good separation was obtained for all the impurities.
# [3] = Storage stability of ticagrelor 6 mg/ml in HPβCD 40% w/w, phosphate buffer pH 7.5, 40° C./75% RH; type: physicochemical
# Protocol: A Gradient HPLC method was used to analyze impurities in formulations using a YMC-Pack Pro C18 column (100×4.6 mm, S-3 μm 12 nm). Good separation was obtained for all the impurities. Following the experiment described in example 2, a storage stability study at pH 7.5 was conducted First HPβCD was dissolved in a phosphate buffer solution of pH 7.5 prepared separately in water. […] The solution was filtered through a 0.22 micrometer filter and filled in USP Type I amber colored glass vials. The vials were stoppered and stored. All precautions were taken during manufacturing, such as N2 purging and avoiding direct exposure to light.
# [4] = Dilution of a concentrated ticagrelor vial (8 ml, 65 mg ticagrelor, about 3 g HPβCD); type: physicochemical
# [5] = system: glycopeptide intermediate Staphylococcus aureus (GISA); conditions: ex-vivo; cited from earlier work
# [6] = system: methicillin-resistant Staphylococcus epidermis (MRSE); conditions: ex-vivo; cited from earlier work
# Enterococcus faecalis = conditions: ex-vivo; cited from earlier work
# [7] = 30-42% confidence interval; cited from earlier work
compound,measurement,setting,value
"CCCSc1nc(N[C@@H]2C[C@H]2c2ccc(F)c(F)c2)c2nnn([C@@H]3C[C@H](OCCO)[C@@H](O)[C@H]3O)c2n1 [ticagrelor, (1S,2S,3R,5S)-3-{7-[(1R,2S)-2-(3,4-difluorophenyl)cyclopropylamino]5-(propylthio)-3H-(1,2,3)triazolo (4,5-D)pyrimidin-3-yl}-5-(2 hydroxyethoxy) cyclopentane-1,2-diol]",Flocculation test,"[1]; HPβCD 30% w/w, ticagrelor 5 mg/ml",passed
same,Flocculation test,"[1]; HPβCD 35% w/w, ticagrelor 5 mg/ml",passed
same,Flocculation test,"[1]; HPβCD 40% w/w, ticagrelor 5 mg/ml",passed
same,Flocculation test,"[1]; HPβCD 40% w/w, ticagrelor 10 mg/ml",passed
same,Flocculation test,"[1]; SBECD 40% w/w, ticagrelor 5 mg/ml",passed
same,regiomer impurity level,"[2]; 4 weeks 40° C. and 75% RH, specification limit 0.3%",~0.3%
same,"Acetal impurity, average content","[2]; pH 4.5, T = 0",0.05%
same,"Amine impurity, average content","[2]; pH 4.5, T = 0",0.05%
same,"Impurity at relative retention time 1.52, average content","[2]; pH 4.5, T = 0",0.03%
same,"Oxidative impurity 1, average content","[2]; pH 4.5, T = 0",0.00%
same,"Oxidative impurity 2, average content","[2]; pH 4.5, T = 0",0.00%
same,"Regiomer impurity, average content","[2]; pH 4.5, T = 0",0.00%
same,Sum impurities >0.05,"[2]; pH 4.5, T = 0",0.22%
same,Total impurities,"[2]; pH 4.5, T = 0",0.36%
same,"Triol Impurity, average content","[2]; pH 4.5, T = 0",0.05%
same,"Acetal impurity, average content","[2]; pH 4.5, T = 2 weeks",0.06%
same,"Amine impurity, average content","[2]; pH 4.5, T = 2 weeks",0.05%
same,"Impurity at relative retention time 1.52, average content","[2]; pH 4.5, T = 2 weeks",0.04%
same,"Oxidative impurity 1, average content","[2]; pH 4.5, T = 2 weeks",0.00%
same,"Oxidative impurity 2, average content","[2]; pH 4.5, T = 2 weeks",0.00%
same,"Regiomer impurity, average content","[2]; pH 4.5, T = 2 weeks",0.00%
same,Sum impurities >0.05,"[2]; pH 4.5, T = 2 weeks",0.23%
same,Total impurities,"[2]; pH 4.5, T = 2 weeks",0.40%
same,"Triol Impurity, average content","[2]; pH 4.5, T = 2 weeks",0.05%
same,"Acetal impurity, average content","[2]; pH 4.5, T = 4 weeks",0.05%
same,"Amine impurity, average content","[2]; pH 4.5, T = 4 weeks",0.05%
same,"Impurity at relative retention time 1.52, average content","[2]; pH 4.5, T = 4 weeks",0.03%
same,"Oxidative impurity 1, average content","[2]; pH 4.5, T = 4 weeks",0.01%
same,"Oxidative impurity 2, average content","[2]; pH 4.5, T = 4 weeks",0.02%
same,"Regiomer impurity, average content","[2]; pH 4.5, T = 4 weeks",0.42%
same,Sum impurities >0.05,"[2]; pH 4.5, T = 4 weeks",0.63%
same,Total impurities,"[2]; pH 4.5, T = 4 weeks",0.80%
same,"Triol Impurity, average content","[2]; pH 4.5, T = 4 weeks",0.05%
same,"Acetal impurity, average content","[2]; pH 5.5, T = 0",0.05%
same,"Amine impurity, average content","[2]; pH 5.5, T = 0",0.04%
same,"Impurity at relative retention time 1.52, average content","[2]; pH 5.5, T = 0",0.02%
same,"Oxidative impurity 1, average content","[2]; pH 5.5, T = 0",0.00%
same,"Oxidative impurity 2, average content","[2]; pH 5.5, T = 0",0.00%
same,"Regiomer impurity, average content","[2]; pH 5.5, T = 0",0.00%
same,Sum impurities >0.05,"[2]; pH 5.5, T = 0",0.16%
same,Total impurities,"[2]; pH 5.5, T = 0",0.33%
same,"Triol Impurity, average content","[2]; pH 5.5, T = 0",0.05%
same,"Acetal impurity, average content","[2]; pH 5.5, T = 2 weeks",0.05%
same,"Amine impurity, average content","[2]; pH 5.5, T = 2 weeks",0.05%
same,"Impurity at relative retention time 1.52, average content","[2]; pH 5.5, T = 2 weeks",0.03%
same,"Oxidative impurity 1, average content","[2]; pH 5.5, T = 2 weeks",0.00%
same,"Oxidative impurity 2, average content","[2]; pH 5.5, T = 2 weeks",0.00%
same,"Regiomer impurity, average content","[2]; pH 5.5, T = 2 weeks",0.00%
same,Sum impurities >0.05,"[2]; pH 5.5, T = 2 weeks",0.21%
same,Total impurities,"[2]; pH 5.5, T = 2 weeks",0.36%
same,"Triol Impurity, average content","[2]; pH 5.5, T = 2 weeks",0.05%
same,"Acetal impurity, average content","[2]; pH 5.5, T = 4 weeks",0.05%
same,"Amine impurity, average content","[2]; pH 5.5, T = 4 weeks",0.04%
same,"Impurity at relative retention time 1.52, average content","[2]; pH 5.5, T = 4 weeks",0.02%
same,"Oxidative impurity 1, average content","[2]; pH 5.5, T = 4 weeks",0.01%
same,"Oxidative impurity 2, average content","[2]; pH 5.5, T = 4 weeks",0.02%
same,"Regiomer impurity, average content","[2]; pH 5.5, T = 4 weeks",0.30%
same,Sum impurities >0.05,"[2]; pH 5.5, T = 4 weeks",0.45%
same,Total impurities,"[2]; pH 5.5, T = 4 weeks",0.65%
same,"Triol Impurity, average content","[2]; pH 5.5, T = 4 weeks",0.05%
same,"Acetal impurity, average content","[2]; pH 6.5, T = 0",0.06%
same,"Amine impurity, average content","[2]; pH 6.5, T = 0",0.05%
same,"Impurity at relative retention time 1.52, average content","[2]; pH 6.5, T = 0",0.03%
same,"Oxidative impurity 1, average content","[2]; pH 6.5, T = 0",0.00%
same,"Oxidative impurity 2, average content","[2]; pH 6.5, T = 0",0.00%
same,"Regiomer impurity, average content","[2]; pH 6.5, T = 0",0.00%
same,Sum impurities >0.05,"[2]; pH 6.5, T = 0",0.22%
same,Total impurities,"[2]; pH 6.5, T = 0",0.36%
same,"Triol Impurity, average content","[2]; pH 6.5, T = 0",0.06%
same,"Acetal impurity, average content","[2]; pH 6.5, T = 2 weeks",0.06%
same,"Amine impurity, average content","[2]; pH 6.5, T = 2 weeks",0.05%
same,"Impurity at relative retention time 1.52, average content","[2]; pH 6.5, T = 2 weeks",0.04%
same,"Oxidative impurity 1, average content","[2]; pH 6.5, T = 2 weeks",0.00%
same,"Oxidative impurity 2, average content","[2]; pH 6.5, T = 2 weeks",0.00%
same,"Regiomer impurity, average content","[2]; pH 6.5, T = 2 weeks",0.00%
same,Sum impurities >0.05,"[2]; pH 6.5, T = 2 weeks",0.23%
same,Total impurities,"[2]; pH 6.5, T = 2 weeks",0.41%
same,"Triol Impurity, average content","[2]; pH 6.5, T = 2 weeks",0.06%
same,"Acetal impurity, average content","[2]; pH 6.5, T = 4 weeks",0.06%
same,"Amine impurity, average content","[2]; pH 6.5, T = 4 weeks",0.05%
same,"Impurity at relative retention time 1.52, average content","[2]; pH 6.5, T = 4 weeks",0.03%
same,"Oxidative impurity 1, average content","[2]; pH 6.5, T = 4 weeks",0.00%
same,"Oxidative impurity 2, average content","[2]; pH 6.5, T = 4 weeks",0.04%
same,"Regiomer impurity, average content","[2]; pH 6.5, T = 4 weeks",0.35%
same,Sum impurities >0.05,"[2]; pH 6.5, T = 4 weeks",0.56%
same,Total impurities,"[2]; pH 6.5, T = 4 weeks",0.72%
same,"Triol Impurity, average content","[2]; pH 6.5, T = 4 weeks",0.05%
same,Acetal impurity,"[3]; T = 0, 40° C./75% RH",0.05%
same,Amine impurity,"[3]; T = 0, 40° C./75% RH",0.04%
same,Assay ticagrelor,"[3]; T = 0, 40° C./75% RH",104.27%
same,Regiomer impurity,"[3]; T = 0, 40° C./75% RH",0.00%
same,Sum impurities >0.05,"[3]; T = 0, 40° C./75% RH",0.11%
same,Total impurities,"[3]; T = 0, 40° C./75% RH",0.31%
same,Triol impurity,"[3]; T = 0, 40° C./75% RH",0.04%
same,Acetal impurity,"[3]; T = 4 weeks, 40° C./75% RH",0.05%
same,Amine impurity,"[3]; T = 4 weeks, 40° C./75% RH",0.05%
same,Assay ticagrelor,"[3]; T = 4 weeks, 40° C./75% RH",104.47%
same,Regiomer impurity,"[3]; T = 4 weeks, 40° C./75% RH",0.01%
same,Sum impurities >0.05,"[3]; T = 4 weeks, 40° C./75% RH",0.14%
same,Total impurities,"[3]; T = 4 weeks, 40° C./75% RH",0.32%
same,Triol impurity,"[3]; T = 4 weeks, 40° C./75% RH",0.05%
same,Acetal impurity,"[3]; T = 8 weeks, 40° C./75% RH",0.05%
same,Amine impurity,"[3]; T = 8 weeks, 40° C./75% RH",0.05%
same,Assay ticagrelor,"[3]; T = 8 weeks, 40° C./75% RH",102.59%
same,Regiomer impurity,"[3]; T = 8 weeks, 40° C./75% RH",0.04%
same,Sum impurities >0.05,"[3]; T = 8 weeks, 40° C./75% RH",0.15%
same,Total impurities,"[3]; T = 8 weeks, 40° C./75% RH",0.29%
same,Triol impurity,"[3]; T = 8 weeks, 40° C./75% RH",0.05%
same,Acetal impurity,"[3]; T = 12 weeks, 40° C./75% RH",0.05%
same,Amine impurity,"[3]; T = 12 weeks, 40° C./75% RH",0.05%
same,Assay ticagrelor,"[3]; T = 12 weeks, 40° C./75% RH",102.31%
same,Regiomer impurity,"[3]; T = 12 weeks, 40° C./75% RH",0.08%
same,Sum impurities >0.05,"[3]; T = 12 weeks, 40° C./75% RH",0.23%
same,Total impurities,"[3]; T = 12 weeks, 40° C./75% RH",0.41%
same,Triol impurity,"[3]; T = 12 weeks, 40° C./75% RH",0.04%
same,Acetal impurity,"[3]; T = 24 Weeks, 40° C./75% RH",0.05%
same,Amine impurity,"[3]; T = 24 Weeks, 40° C./75% RH",0.07%
same,Assay ticagrelor,"[3]; T = 24 Weeks, 40° C./75% RH",104.39%
same,Regiomer impurity,"[3]; T = 24 Weeks, 40° C./75% RH",0.16%
same,Sum impurities >0.05,"[3]; T = 24 Weeks, 40° C./75% RH",0.33%
same,Total impurities,"[3]; T = 24 Weeks, 40° C./75% RH",0.35%
same,Triol impurity,"[3]; T = 24 Weeks, 40° C./75% RH",0.05%
same,storage stability (conclusion),[3]; accelerated storage conditions of 40° C. and 75% Relative Humidity,good storage stability
same,clear solution on dilution,"[4]; 0,9 w/v % NaCl solution as diluent",not possible
same,appearance after dilution,"[4]; diluted with 25 ml 5 w/v % dextrose, final volume 33 ml",clear solution
same,minimal bactericidal concentration,[5],20 microgram/ml
same,minimal bactericidal concentration,[6],30 microgram/ml
same,minimal bactericidal concentration,Enterococcus faecalis,40 microgram/ml
same,Oral bioavailability,[7],36%
